Reference: patent US20250171462A1 (NICO Therapeutics, Inc., priority 2022, published 2025)
Where two headings read alike, the source gives them in different places.

Target: T1, full-length SARM1 (FL-SARM1) (Homo sapiens, UniProt Q6SZW1)
T1 sequence (Q6SZW1 28-724): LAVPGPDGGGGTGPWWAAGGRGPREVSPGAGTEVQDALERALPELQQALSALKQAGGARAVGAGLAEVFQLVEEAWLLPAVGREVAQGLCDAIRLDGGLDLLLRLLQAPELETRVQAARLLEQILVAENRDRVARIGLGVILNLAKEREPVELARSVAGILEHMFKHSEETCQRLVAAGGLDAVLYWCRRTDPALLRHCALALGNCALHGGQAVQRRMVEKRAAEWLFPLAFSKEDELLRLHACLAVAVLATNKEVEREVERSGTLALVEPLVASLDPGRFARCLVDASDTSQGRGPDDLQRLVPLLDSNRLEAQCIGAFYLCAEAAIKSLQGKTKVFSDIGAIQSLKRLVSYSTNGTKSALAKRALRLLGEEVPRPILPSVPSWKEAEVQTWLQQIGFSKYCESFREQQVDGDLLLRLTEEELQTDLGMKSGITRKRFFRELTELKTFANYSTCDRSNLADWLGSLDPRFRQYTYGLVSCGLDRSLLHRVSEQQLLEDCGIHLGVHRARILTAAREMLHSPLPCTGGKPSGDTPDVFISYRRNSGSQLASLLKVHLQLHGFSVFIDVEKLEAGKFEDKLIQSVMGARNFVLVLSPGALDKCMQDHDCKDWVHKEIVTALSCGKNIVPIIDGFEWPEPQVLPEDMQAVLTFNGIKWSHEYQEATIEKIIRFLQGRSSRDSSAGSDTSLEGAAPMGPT
Assay: FL-SARM1 cellular lysate assay (NAD/NADH-Glo detection of remaining NAD+, NMN-activated)

[1] = Activity (μM) (IC50), 11 point curve
[2] = read-out: Activity (IC50 class), 11 point curve
[3] = Activity (IC50 class), 11 point curve

Method: Preparation of full-length SARM1 (FL-SARM1) lysate: HEK293T cells (ATCC: CRL-3216) were grown on 150 mm TC-treated dishes to 80-90% confluency in complete DMEM (DMEM (Thermo Fisher: 11965175) supplemented with 10% HI—FBS (VWR: 10802-772), 1× Pen/Strep (Thermo Fisher: 15140122), 1×NEAA (Thermo Fisher: 1140050), 1× glutamax (Thermo Fisher: 35050061), and 1 mM sodium pyruvate (Thermo Fisher: 11360070)) at 37° C. and 5% CO2. One hour prior to transfection, the media was replaced with fresh, 37° C. complete DMEM (20 mL per one 150 mm dish) supplemented with additional 10 mM glucose (Alfa Aesar AAJ60067EQE). Per one 150 mm dish, 30 μg FL-SARM1 (SEQ. ID. 1; cloned in-house) plasmid was dissolved in 1 mL DMEM at ambient temperature and were mixed by inverting the tube 8-10 times. 90 μL of GenJet™ in vitro DNA transfection reagent (Ver2) was dissolved in 1 mL DMEM at ambient temperature and were mixed by inverting the tube 8-10 times. The plasmid and transfection agent solutions were combined, mixed by 8-10 inversions and incubated for 10 minutes at ambient temperature. 2 mL of this transfection mixture was added to each dish containing HEK293T cells as prepared above followed by a gentle mixing of 4-5 horizontal rotations. The dishes were incubated at 37° C. and 5% CO2 for 24 h. The dishes were removed from the incubator, the medium was aspirated and the cells were scraped off using cell scrapers in ice-cold 1×PBS (5 mL/dish, Thermo Fisher Scientific 10010023). The collected cells were centrifuged at 300 g for 5 minutes at 4° C. The supernatant was aspirated and the pellet was frozen at −80° C. until needed. The cell pellet from 30 dishes was dissolved in 30 mL 1×PBS supplemented with 4 tablets of Complete, Mini EDTA-free protease inhibitor cocktail at 4° C. This mixture was sonicated on ice for 10 minutes at 50% amplitude with a 1 second on/1 second off interval using a Model 120 sonicator (Thermo Fisher Scientific, FB120110). The lysate was centrifuged at 16000 g for 10 minutes at 4° C.
To a white 384-well Proxiplate (PerkinElmer, PE-6008280) was added 50 nL/well of a DMSO solution containing test compounds followed by 7.5 μL/well of a 0.067 mg/mL solution of SARMi cellular lysate in reaction buffer (DPBS containing CHAPSO (0.1%) and fatty acid free BSA (0.032%)). The plate was centrifuged for 1 minute at 1000 RPM and then placed in an incubator at 23° C. for 15 minutes. To the wells were added 2.5 μL/well of a solution containing 40 M NAD^+ and 4 mM nicotinamide mononucleotide (NMN) in reaction buffer. The plate was centrifuged for 1 min at 1000 RPM, the plate was sealed and placed in an incubator at 23° C. for 3.5 hours before adding 3.5 μL/well of NAD/NADH-Glo™ solution (preparation as described by Promega using the extended detection protocol). The plate was centrifuged for 1 minute at 1000 RPM and then incubated at 23° C. for 20 minutes. 1 μL/well of a 3.625 mM solution of menadione in DMSO was added and the plate was centrifuged for 1 minute at 1000 RPM. Relative light units (RLU) were recorded using an Envision plate reader at a height of 6.5 mm.
IC50 values were calculated from an 11 point curve using ½ log dilutions using a four-parameter logistic regression curve fit.

| Compound | IC50 [1] [µM] | IC50 [2] [µM] | IC50 [3] [µM] |
| --- | --- | --- | --- |
| Cc1cc(F)c(NC(=O)N2[C@@H]3C[C@@H](C)C[C@H]2C3)cc1-c1ncccn1 [Example 253, cis-N-(2-fluoro-4-methyl-5-pyrimidin-2-ylphenyl)-3-methyl-6-azabicyclo[3.1.1]heptane-6-carboxamide] | 0.08 | 0.0001 to 1 | – |
| Cc1ccc(NC(=O)N(C)C(c2ncccn2)C2CCC2)cc1-c1ncc(F)cn1 (racemic) [Example 214, 1-(cyclobutyl(pyrimidin-2-yl)methyl)-3-(3-(5-fluoropyrimidin-2-yl)-4-methylphenyl)-1-methylurea] | 3.9 | – | 1 to 10 |
| COc1ccc(-c2cc(NC(=O)N3C4CCCC3C4)ccc2C)nn1 [Example 60, N-(3-(6-methoxypyridazin-3-yl)-4-methyl-phenyl)-6-azabicyclo[3.1.1]heptane-6-carboxamide] | 1.1 | – | 1 to 10 |
| Cc1ccc(NC(=O)C2CCC2(F)F)cc1-c1ccccn1 (racemic) [Example 111, 2,2-difluoro-N-(4-methyl-3-pyridin-2-ylphenyl)cyclobutane-1-carboxamide] | 2.8 | – | 1 to 10 |
| Cc1ccc(NC(=O)N2C3CCC2c2c(F)cncc23)cc1-c1ccccn1 (stereo not shown) [Example 15, 4-fluoro-N-(4-methyl-3-(pyridin-2-yl)phenyl)-5,6,7,8-tetrahydro-5,8-epiminoisoquinoline-9-carboxamide] | 0.4 | 0.0001 to 1 | – |
| Cc1ccc(NC(=O)[C@H]2CC[C@@H](C)N2c2ccccn2)cc1-c1ncc(F)cn1 [Example 282, (2R,5R)-N-[3-(5-fluoropyrimidin-2-yl)-4-methylphenyl]-5-methyl-1-pyridin-2-ylpyrrolidine-2-carboxamide] | 1.2 | – | 1 to 10 |
| Cc1ccc(NC(=O)N2CC3CC2c2ccccc2O3)cc1-c1ccccn1 (stereo not shown) [Example 24, N-(4-methyl-3-(pyridin-2-yl)phenyl)-2,3-dihydro-2,5-methanobenzo[f][1,4]oxazepine-4(5H)-carboxamide] | 1.4 | – | 1 to 10 |
| Cc1ccc(NC(=O)N2[C@@H]3C[C@@H](C)C[C@H]2C3)cc1-c1cc(OCF)cnn1 [Example 185, cis-N-(3-(5-(fluoromethoxy)pyridazin-3-yl)-4-methylphenyl)-3-methyl-6-azabicyclo[3.1.1]heptane-6-carboxamide] | 0.05 | 0.0001 to 1 | – |
| Cc1ccc(NC(=O)[C@@H]2CC2(F)F)cc1-c1ccc(Cl)cn1 [Example 160, (1S)-N-[3-(5-chloropyridin-2-yl)-4-methylphenyl]-2,2-difluorocyclopropane-1-carboxamide] | 2.5 | – | 1 to 10 |
| CO[C@H]1CCCN(C(=O)Nc2ccc(C(F)(F)F)c(-c3ncc(F)cn3)c2)CC1 [Example 307, (S)-N-(3-(5-fluoropyrimidin-2-yl)-4-(trifluoromethyl)phenyl)-4-methoxyazepane-1-carboxamide] | 13 | – | > 10 |
| Cc1ccc(NC(=O)N2C3CCC2[C@H](C)C3)cc1-c1ncc(F)cn1 (single isomer, unassigned) [Example 197, trans-N-[3-(5-fluoropyrimidin-2-yl)-4-methylphenyl]-2-methyl-7-azabicyclo[2.2.1]heptane-7-carboxamide] | 0.4 | 0.0001 to 1 | – |
| Cc1ccc(NC(=O)OCC2CC2)cc1-c1ncccn1 [Example 328] | 31 | – | > 10 |
| CCO[C@H]1CC2C[C@H](C1)N2C(=O)Nc1ccc(C)c(-c2ccccn2)c1 [Example 79, trans-3-ethoxy-N-(4-methyl-3-(pyridin-2-yl)phenyl)-6-azabicyclo[3.1.1]heptane-6-carboxamide] | 2.8 | – | 1 to 10 |
| Cc1cc(F)c(NC(=O)N2CC3CC2c2ccccc23)cc1-c1cccnn1 (single isomer, unassigned) [Example 202, N-(2-fluoro-4-methyl-5-pyridazin-3-ylphenyl)-9-azatricyclo[6.2.1.02,7]undeca-2(7),3,5-triene-9-carboxamide] | 6.7 | 1 to 10 | – |
| Cc1ccc(NC(=O)N2C3C[C@@H](C)C[C@H]2C3)cc1-c1cc(F)ccn1 [Example 224, cis-N-[3-(4-fluoropyridin-2-yl)-4-methylphenyl]-3-methyl-6-azabicyclo[3.1.1]heptane-6-carboxamide] | 0.04 | 0.0001 to 1 | – |
| Cc1ccc(NC(=O)N2CC(C3CC3)C2)cc1-c1ccccn1 [Example 25, 3-cyclopropyl-N-(4-methyl-3-(pyridin-2-yl)phenyl)azetidine-1-carboxamide] | 6.7 | – | 1 to 10 |

| Compound | IC50 [1] [µM] | IC50 [2] [µM] | IC50 [3] [µM] |
| --- | --- | --- | --- |
| Cc1cc(F)cnc1-c1cccc(NC(=O)N2C3CCCC2C3)c1 [Example 81, N-[3-(5-fluoro-3-methylpyridin-2-yl)phenyl]-6-azabicyclo[3.1.1]heptane-6-carboxamide] | 3.4 | – | 1 to 10 |
| C[C@@H]1C[C@@H]2C[C@H](C1)N2C(=O)Nc1cc(-c2nccnn2)c(Cl)cc1F [Example 323] | 0.2 | 0.0001 to 1 | – |
| Cc1ccc(NC(=O)N2C3CC2CC(C(F)(F)F)C3)cc1-c1ccccn1 (single isomer, unassigned) [Example 86, N-(4-methyl-3-pyridin-2-ylphenyl)-3-(trifluoromethyl)-6-azabicyclo[3.1.1]heptane-6-carboxamide] | 0.01 | 0.0001 to 1 | – |
| Cc1cc(NC(=O)N2C3CCCC2C3)cc(-c2ccccn2)c1C [Example 71, N-(3,4-dimethyl-5-(pyridin-2-yl)phenyl)-6-azabicyclo[3.1.1]heptane-6-carboxamide] | 10.9 | – | > 10 |
| CC[C@H]1C[C@@H]1C(=O)Nc1ccc(C)c(-c2ccccn2)c1 (single isomer, unassigned) [Example 107, trans-2-ethyl-N-(4-methyl-3-pyridin-2-ylphenyl)cyclopropane-1-carboxamide] | 18 | – | > 10 |
| CC1(c2ccc(NC(=O)[C@@H]3CC3(F)F)cc2-c2ccccn2)CC1 [Example 133, (1S)-2,2-difluoro-N-[4-(1-methylcyclopropyl)-3-pyridin-2-ylphenyl]cyclopropane-1-carboxamide] | 24 | – | > 10 |
| CCOC(C)[C@@]12CC(C[C@@H](C)C1)N2C(=O)Nc1ccc(C)c(-c2ncc(F)cn2)c1 (single isomer, unassigned) [Example 189, cis-1-(1-ethoxyethyl)-N-(3-(5-fluoropyrimidin-2-yl)-4-methylphenyl)-3-methyl-6-azabicyclo[3.1.1]heptane-6-carboxamide] | 1.9 | – | 1 to 10 |
| Cc1cc(F)c(NC(=O)[C@@H]2CC2(F)F)cc1-c1ccccn1 (stereo in doubt) [Example 143, 2,2-difluoro-N-(2-fluoro-4-methyl-5-pyridin-2-ylphenyl)cyclopropane-1-carboxamide] | 1.8 | – | 1 to 10 |
| Cc1ccc(NC(=O)N2C3CCCC2C3)cc1-c1ncc(F)cc1F [Example 248, N-[3-(3,5-difluoropyridin-2-yl)-4-methylphenyl]-6-azabicyclo[3.1.1]heptane-6-carboxamide] | 0.2 | 0.0001 to 1 | – |
| COCC1COc2ccccc2CN1C(=O)Nc1ccc(C)c(-c2ncc(F)cn2)c1 (racemic) [Example 309, N-(3-(5-fluoropyrimidin-2-yl)-4-methylphenyl)-3-(methoxymethyl)-2,3-dihydrobenzo[f][1,4] oxazepine-4(5H)-carboxamide] | 1.1 | – | 1 to 10 |
| CC(C)c1ccc(NC(=O)[C@@H]2CC2(F)F)cc1-c1ccccn1 [Example 151, (1S)-2,2-difluoro-N-(4-propan-2-yl-3-pyridin-2-ylphenyl)cyclopropane-1-carboxamide] | 4.2 | – | 1 to 10 |
| Cc1ccc(NC(=O)N2CCCC2c2nccn2C)cc1-c1ccccn1 (racemic) [Example 93, 2-(1-methylimidazol-2-yl)-N-(4-methyl-3-pyridin-2-ylphenyl)pyrrolidine-1-carboxamide] | 21 | – | > 10 |
| Cc1cc(F)c(NC(=O)N2CCOc3cccnc3C2C)cc1-c1cccnn1 (stereo not shown) [Example 182, N-(2-fluoro-4-methyl-5-(pyridazin-3-yl)phenyl)-5-methyl-2,3-dihydropyrido[2,3-f][1,4]oxazepine-4(5H)-carboxamide] | 6 | – | 1 to 10 |
| Cc1ccc(NC(=O)[C@H]2C[C@H]3C[C@H]3N2c2ncccn2)cc1-c1ncccn1 [Example 266, (1R,3R,5R)-N-(4-methyl-3-pyrimidin-2-ylphenyl)-2-pyrimidin-2-yl-2-azabicyclo[3.1.0]hexane-3-carboxamide] | 4.2 | – | 1 to 10 |
| Cc1ccc(NC(=O)C2CC3CC[C@H]2C3)cc1-c1ccccn1 (single isomer, unassigned) [Example 137, trans-N-(4-methyl-3-pyridin-2-ylphenyl)bicyclo[2.2.1]heptane-2-carboxamide] | 0.1 | 0.0001 to 1 | – |
| CCc1ccc(NC(=O)N2C3CCCC2C3)cc1-c1ccccn1 [Example 30, N-(4-ethyl-3-(pyridin-2-yl)phenyl)-6-azabicyclo[3.1.1]heptane-6-carboxamide] | 0.2 | 0.0001 to 1 | – |
